Here are results for 32 compounds from US7645781B2, “N-aryl-2-oxazolidinone-5-carboxamides and their derivatives” (Pfizer Inc, priority 2002, dated 2010).

SMILES strings stand for the structures. Converted amounts (≈) assume the structure as drawn.

The first assay concerns Staphylococcus aureus (SAUR 9213). Description: MIC by standard agar dilution method. The settings on record: Mueller Hinton agar, incubated overnight at 35° C. It counts as cell-based. From the text: The antibacterial agents of this invention have useful activity against a variety of organisms. The in vitro activity of compounds of this invention can be assessed by standard testing procedures such as the determination of minimum inhibitory concentration (MIC) by agar dilution as described in “Approved Standard. Methods for Dilution Antimicrobial Susceptibility Tests for Bacteria That Grow Aerobically”, 3rd. ed., published 1993 by the National Committee for Clinical Laboratory Standards, Villanova, Pa., USA. The in vitro MICs of test compounds are determined by a standard agar dilution method. A stock drug solution of each analog is prepared in the preferred solvent, usually DMSO:H2O (1:3). Serial 2-fold dilutions of each sample are made using 1.0 ml aliquots of sterile distilled water. To each 1.0 ml aliquot of drug is added 9 ml of molten Mueller Hinton agar medium. The drug-supplemented agar is mixed, poured into 15×100 mm petri dishes, and allowed to solidify and dry prior to inoculation. Vials of each of the test organisms are maintained frozen in the vapor phase of a liquid nitrogen freezer. Test cultures are grown overnight at 35° C. on the medium appropriate for the organism. Colonies are harvested with a sterile swab, and cell suspensions are prepared in Trypticase Soy broth (TSB) to equal the turbidity of a 0.5 McFarland standard. A 1:20 dilution of each suspension is made in TSB. The plates containing the drug supplemented agar are inoculated with a 0.001 ml drop of the cell suspension using a Steers replicator, yielding approximately 10^4 to 10^5 cells per spot. The plates are incubated overnight at 35° C. Following incubation the Minimum Inhibitory Concentration (MIC μg/ml), the lowest concentration of drug that inhibits visible growth of the organism, is read and recorded.
Background: In agar dilution the substance is mixed into plates at graded concentrations.
For orientation: MIC means the least concentration at which growth counts as inhibited. For the compound `N=S1(=O)CCC(c2ccc(N3C[C@H](C(N)=O)OC3=O)cc2F)CC1` (stereo in doubt) [Example 56, (5R)-3-[4-(cis-1-Imino-1-oxido-1,1,3,4,5,6-hexahydro-2H-thiopyran-4-yl)-3-fluorophenyl]-2-oxo-5-oxazolidinecarboxamide], the MIC was 4 µg/mL (≈ 11.3 µM).

Staying with this assay, now noted: Mueller Hinton agar, incubated overnight at 35° C., read-out: MIC.
With `CNC(=O)[C@H]1CN(c2cc(F)c3c(c2)oc(=O)n3C)C(=O)O1` [Example 89, (5R)-3-(4-Fluoro-3-methyl-2-oxo-2,3-dihydro-6-benzoxazolyl)-N-methyl-2-oxo-5-oxazolidinecarboxamide], the MIC was determined as 16 µg/mL (≈ 51.7 µM).
For `CNC(=O)[C@H]1CN(c2ccc3c(c2)OCC(=O)N3C)C(=O)O1` [Example 60, (5R)-N-Methyl-3-(3,4-dihydro-4-methyl-3-oxo-2H-1,4-benzoxazin-7-yl)-2-oxo-5-oxazolidinecarboxamide], the minimum inhibitory concentration (MIC) was found to be 2 µg/mL (≈ 6.55 µM).
Same read-out and setting: then `CN1C(=O)COc2cc(N3C[C@H](C(=O)NCCF)OC3=O)ccc21` [Example 61, (5R)-N-(2-Fluoroethyl)-3-(3,4-dihydro-4-methyl-3-oxo-2H -1,4-benzoxazin-7-yl)-2-oxo-5-oxazolidinecarboxamide], with 8 µg/mL (≈ 23.7 µM).
On to `NC(=O)[C@H]1CN(c2cc(F)c(N3C=CC(=O)CC3)c(F)c2)C(=O)O1` [Example 76, (5R)-3-[4-(4-Oxo-3,4-dihydro-1(2H)-pyridinyl)-3,5-difluorophenyl]-2-oxo-5-oxazolidinecarboxamide], for which the MIC amounted to 4 µg/mL (≈ 11.9 µM).
Still for that read-out and setting: in the case of `CC(C)n1c(=O)oc2cc(N3C[C@H](C(N)=O)OC3=O)cc(F)c21` [Example 88, (5R)-3-(4-Fluoro-3-isopropyl-2-oxo-2,3-dihydro-6-benzoxazolyl)-2-oxo-5-oxazolidinecarboxamide] it was 4 µg/mL (≈ 12.4 µM).
The same measure, in the same setting: in the case of `NC(=O)[C@H]1CN(c2ccc(N3C=CC(=O)CC3)c(F)c2)C(=O)O1` [Example 69, (5R)-3-[4-(4-Oxo-3,4-dihydro-1(2H)-pyridinyl)-3-fluorophenyl]-2-oxo-5-oxazolidinecarboxamide] it was 2 µg/mL (≈ 6.26 µM); in that of `CNC(=O)[C@H]1CN(c2cc(F)c([C@H]3CC[S@+]([O-])CC3)c(F)c2)C(=O)O1` [Example 48, (5R)-N-Methyl-3-[3,5-difluoro-4-(trans-tetrahydro-1-oxido-2H-thiopyran-4-yl)phenyl]-2-oxo-5-oxazolidinecarboxamide], 2 µg/mL (≈ 5.37 µM).
Still for that read-out and setting: then `CNC(=O)[C@H]1CN(c2cc(F)c3c(c2)oc(=O)n3C(C)C)C(=O)O1` [Example 91, (5R)-3-(4-Fluoro-3-isopropyl-2-oxo-2,3-dihydro-6-benzoxazolyl)-N-methyl-2-oxo-5-oxazolidinecarboxamide], with 4 µg/mL (≈ 11.9 µM); and `CN1C(=O)CSc2cc(N3C[C@H](C(N)=O)OC3=O)ccc21` [Example 62, (5R)-3-(3,4-Dihydro-4-methyl-3-oxo-2H-1,4-benzothiazin-7-yl)-2-oxo-5-oxazolidinecarboxamide], with 4 µg/mL (≈ 13 µM).
With `CN1C(=S)CSc2cc(N3C[C@H](C(N)=O)OC3=O)ccc21` [Example 84, 3-(4-Methyl-3-thioxo-3,4-dihydro-2H-1,4-benzothiazin-7-yl)-2-oxo-5-oxazolidinecarboxamide], the MIC stood at 2 µg/mL (≈ 6.18 µM).
For `CCNC(=O)[C@H]1CN(c2ccc(N3C=CC(=O)CC3)c(F)c2)C(=O)O1` [Example 71, (5R)-N-Ethyl-3-[4-(4-oxo-3,4-dihydro-1(2H)-pyridinyl)-3-fluorophenyl]-2-oxo-5-oxazolidinecarboxamide], the MIC is 4 µg/mL (≈ 11.5 µM).
As for `CNC(=O)[C@H]1CN(c2ccc(N3C=CC(=O)CC3)cc2)C(=O)O1` [Example 73, (5R)-N-Methyl-3-[4-(4-oxo-3,4-dihydro-1(2H)-pyridinyl)phenyl]-2-oxo-5-oxazolidinecarboxamide], the MIC stood at 2 µg/mL (≈ 6.34 µM).
Same read-out and setting: then `NC(=O)[C@H]1CN(c2cc(F)c(N3C=CS(=O)(=O)CC3)c(F)c2)C(=O)O1` [Example 65, (5R)-3-[4-(1,1-dioxido-2,3-dihydro-4H-1,4-thiazin-4-yl)-3,5-difluorophenyl]-2-oxo-5-oxazolidinecarboxamide], with 2 to 4 µg/mL (≈ 5.36 to 10.7 µM); and `CN1C(=O)CCc2cc(N3C[C@H](C(N)=O)OC3=O)ccc21` [Example 67, (5R)-3-(1-Methyl-2-oxo-1,2,3,4-tetrahydroquinolin-6-yl)-2-oxo-5-oxazolidinecarboxamide], with 2 µg/mL (≈ 6.91 µM).
Take `CNC(=O)[C@H]1CN(c2ccc3c(c2)SCC(=O)N3C)C(=O)O1` [Example 63, (5R)-N-Methyl-3-(3,4-dihydro-4-methyl-3-oxo-2H-1,4-benzothiazin-7-yl)-2-oxo-5-oxazolidinecarboxamide]: the minimum inhibitory concentration (MIC) turned out to be 4 µg/mL (≈ 12.4 µM).
Still for that read-out and setting: then `CCn1c(=O)oc2cc(N3C[C@H](C(=O)NC)OC3=O)cc(F)c21` [Example 90, (5R)-3-(3-Ethyl-4-fluoro-2-oxo-2,3-dihydro-6-benzoxazolyl)-N-methyl-2-oxo-5-oxazolidinecarboxamide], with 4 µg/mL (≈ 12.4 µM).
For `CNC(=O)[C@H]1CN(c2ccc([C@H]3CC[S@+]([O-])CC3)c(F)c2)C(=O)O1` [Example 85, (5R)-N-Methyl-3-[3-fluoro-4-(trans-tetrahydro-1-oxido-2H-thiopyran-4-yl)phenyl]-2-oxo-5-oxazolidinecarboxamide], the minimal inhibitory concentration (MIC) is 2 µg/mL (≈ 5.64 µM).
Same read-out and setting: then `O=C1C=CN(c2ccc(N3C[C@H](C(=O)NCCF)OC3=O)cc2)CC1` [Example 75, (5R)-N-(2-Fluoroethyl)-3-[4-(4-oxo-3,4-dihydro-1(2H)-pyridinyl)phenyl]-2-oxo-5-oxazolidinecarboxamide], with 8 µg/mL (≈ 23 µM); and `CNC(=O)[C@H]1CN(c2cc(F)c(N3C=CC(=O)CC3)c(F)c2)C(=O)O1` [Example 77, (5R)-N-Methyl-3-[4-(4-oxo-3,4-dihydro-1(2H)-pyridinyl)-3,5-difluorophenyl]-2-oxo-5-oxazolidinecarboxamide], with 2 µg/mL (≈ 5.69 µM).
On the same count and under the same terms, then `Cn1c(=O)oc2cc(N3C[C@H](C(N)=O)OC3=O)cc(F)c21` [Example 86, (5R)-3-(4-Fluoro-3-methyl-2-oxo-2,3-dihydro-6-benzoxazolyl)-2-oxo-5-oxazolidinecarboxamide], with 4 µg/mL (≈ 13.5 µM); and `CCn1c(=O)oc2cc(N3C[C@H](C(N)=O)OC3=O)cc(F)c21` [Example 87, (5R)-3-(3-Ethyl-4-fluoro-2-oxo-2,3-dihydro-6-benzoxazolyl) -2-oxo-5-oxazolidinecarboxamide], with 2 µg/mL (≈ 6.47 µM).
Still for that read-out and setting: in the case of `CNC(=O)[C@H]1CN(c2ccc(N3C=CC(=O)CC3)c(F)c2)C(=O)O1` [Example 70, (5R)-N-Methyl-3-[4-(4-oxo-3,4-dihydro-1(2H)-pyridinyl)-3-fluorophenyl]-2-oxo-5-oxazolidinecarboxamide] it was 2 µg/mL (≈ 6 µM); in that of `COC(=O)N1CC(C)(c2c(F)cc(N3C[C@H](C(N)=O)OC3=O)cc2F)C1` [Example 57, (5R)-(−)-3-[3,5-Difluoro-4-(1-methoxycarbonyl-3-methylazetidin-3-yl)phenyl]-2-oxo-5-oxazolidinecarboxamide], 8 µg/mL (≈ 21.7 µM); in that of `CN1C(=O)COc2cc(N3C[C@H](C(N)=O)OC3=O)ccc21` [Example 59, (5R)-3-(3,4-Dihydro-4-methyl-3-oxo-2H-1,4-benzoxazin-7-yl) -2-oxo-5-oxazolidinecarboxamide], 2 µg/mL (≈ 6.87 µM).
Take `CN1C(=O)C(F)(F)Oc2cc(N3C[C@H](C(N)=O)OC3=O)ccc21` [Example 80, (5R)-3-(2,2-Difluoro-4-methyl-3,4-dihydro-3-oxo-2H-1,4-benzoxazin-7-yl)-2-oxo-5-oxazolidinecarboxamide]: the MIC stood at 2 µg/mL (≈ 6.11 µM).
For `NC(=O)[C@H]1CN(c2cc(F)c([C@H]3CC[S@+]([O-])CC3)c(F)c2)C(=O)O1` [Example 47, (5R)-(−)-3-[3,5-Difluoro-4-(trans-tetrahydro-1-oxido-2H-thiopyran-4-yl)phenyl]-2-oxo-5-oxazolidinecarboxamide], the minimal inhibitory concentration (MIC) turned out to be 4 µg/mL (≈ 11.2 µM).
As to `NC(=O)[C@H]1CN(c2ccc(N3C=CC(=O)CC3)cc2)C(=O)O1` [Example 72, (5R)-3-[4-(4-Oxo-3,4-dihydro-1(2H)-pyridinyl)phenyl]-2-oxo-5-oxazolidinecarboxamide], the MIC came out at 2 µg/mL (≈ 6.64 µM).
Same read-out and setting: then `CNC(=O)[C@H]1CN(c2ccc3c(c2)CCC(=O)N3C)C(=O)O1` [Example 68, (5R)-N-Methyl-3-(1-methyl-2-oxo-1,2,3,4-tetrahydroquinolin-6-yl)-2-oxo-5-oxazolidinecarboxamide], with 4 µg/mL (≈ 13.2 µM).
With `NC(=O)[C@H]1CN(c2cc(F)c(N3CC=CC3)c(F)c2)C(=O)O1` [Example 66, (5R)-3-[4-(2,5-Dihydro-1H-pyrrol-1-yl)-3,5-difluorophenyl]-2-oxo-5-oxazolidinecarboxamide], the MIC amounted to 4 µg/mL (≈ 12.9 µM).
As for `CCNC(=O)[C@H]1CN(c2ccc(N3C=CC(=O)CC3)cc2)C(=O)O1` [Example 74, (5R)-N-Ethyl-3-[4-(4-oxo-3,4-dihydro-1(2H)-pyridinyl)phenyl]-2-oxo-5-oxazolidinecarboxamide], the minimum inhibitory concentration (MIC) came out at 8 µg/mL (≈ 24.3 µM).
Still for that read-out and setting: then `CNC(=O)[C@H]1CN(c2cc(F)c(C3(C)CN(C(=O)OC)C3)c(F)c2)C(=O)O1` [Example 58, (5R)-(−)-N-Methyl-3-[3,5-difluoro-4-(1-methoxycarbonyl-3-methylazetidin-3-yl)phenyl]-2-oxo-5-oxazolidinecarboxamide], with 8 µg/mL (≈ 20.9 µM).
